From paper PMC9671962 (Communications Biology, 2022)
“And” between values parts separate entries of the source, which are not always exact repeats. Equal entries are not always repeated.

Columns and labels:
COG-N-453x = assay: Pre-clinical efficacy study, COG-N-453x PDX; type: in vivo; details: single mouse
Description: (§1) Patient demographics and genetic characteristics are listed in (Supplementary Tables 1, 2)[17]. The maximum tolerated dose (MTD) was determined to be 36 MBq/kg administered by intra-peritoneal injection twice weekly for a total of 4 dose fractions and this fractionated regimen was used in all studies (Supplementary Fig. 1)[18],[19]. […] Nine of 11 PDX models were MYCN amplified (Fig. 1b), which is a hallmark of high-risk neuroblastoma. Tumor response was measured as the maximum percent decrease in tumor volume after treatment and event-free survival (EFS) was measured by the area over the curve method with tumor events pre-defined by tumor growth exceeding 2 cm[3],[18].
(§2) The use of 2 mice per arm was based on the previously reported statistical analysis. PDX tumors were implanted into the right flank of 5 to 6-weeks old female mice weighing about 20–25 grams. […] Two additional dose levels of 12, and 24 MBq/kg/fraction were assessed in a subset of models and were administered as stated above. In two models treated at the 24 MBq/kg/fraction dose level we re-challenged tumor response at the time of tumor progression with an additional 4 dose fractions at 24 MBq/kg/fraction given twice weekly. Doses were prepared in 500 µL total volume. An equal volume of saline was used for the vehicle group. Tumors were measured using a digital caliper at the initiation of the study and two times per week during the treatment period. Tumor volumes were calculated as volume = ([…]∗0.5236)/1000. Weights were obtained twice weekly and mice were monitored daily for signs of toxicity. […] Tumor response was assessed by best response defined as greatest reduction in tumor volume following the last dose and is presented as percent change in tumor volume. Event-free survival was determined by area over the curve method that calculates the time to tumor event, which was defined as tumors reaching or exceeding a size ≥ 2 cm^3.
(§3) Animal studies were performed in female mice due to the lack of sex-related differences for [^211At]PTT tolerability from initial dose response studies performed in female and male mice. Female mice were chosen due to their underlying behavior towards other study subjects that reduced nonstudy-related causes for decreased wellness. Pre-clinical efficacy studies were performed through “single mouse testing” to more closely recapitulate a clinical trial. […] Number size for treatment groups was determined by model tumor growth reproducibility, which was previously shown to have less than 5% normal variation with at least two animals. Statistical tests for tumor response and event-free survival (EFS) were performed as a grouped analysis that included all tumor models treated at each respective dose level (n = 2 per model per dose level). Statistical differences between treatment groups for tumor response was performed by paired-model T-test that compared reduction in tumor volume for the 36 MBq/kg dose level vs. 24 MBq/kg or 12 MBq/kg. Event free survival was measured by area over the curve method to quantify time to event, which was set as tumor growth exceeding 2 cm[3],[19]. Differences in EFS were tested across all treated models for each respective dose level, and against untreated controls, by paired-model ANOVA analysis. Associations of drug target expression and response were performed by linear regression analysis of EFS and PARP1 mRNA expression. Genetic signatures were visually presented as a function of EFS and no statistical tests were applied. Blood and marrow toxicity studies were performed with n = 5 sample sizes and powered to detect >20% differences between untreated controls and treated animals. Results were tested for significance by one-way ANOVA comparison from untreated controls. Marrow colony formation assays were performed in replicates of 2 for each mouse subject, dependent on marrow isolation, and all replicates are included in final analyses. […]

[1] = tested on: high-risk neuroblastoma patient-derived xenograft (PDX) mouse models; assay: Pre-clinical efficacy study in 11 neuroblastoma PDX mouse models (grouped analysis); type: in vivo
Description: as §1, §2, §3

COG-N-519x = assay: Pre-clinical efficacy study, COG-N-519x PDX; type: in vivo; details: single mouse
Description: as §1, §2, §3

NB-EBC1x = assay: Pre-clinical efficacy study, NB-EBC1x PDX; type: in vivo, mouse; details: for EFS by AOC method / Tumor response (% growth from study initiation at ~ 200 mm3): single mouse; for Tumor Volume: NBEBC1 tumor re-challenge (24 MBq/kg/fraction x 4)
Description: as §1, §2, §3

COG-N-471x = assay: Pre-clinical efficacy study, COG-N-471x PDX; type: in vivo; details: 36 MBq/kg/fraction x 4 fractions, single mouse
Description: as §1
The use of 2 mice per arm was based on the previously reported statistical analysis. […] Two additional dose levels of 12, and 24 MBq/kg/fraction were assessed in a subset of models and were administered as stated above. […] Tumors were measured using a digital caliper at the initiation of the study and two times per week during the treatment period. Tumor volumes were calculated as volume = ((diameter^1/2 + diameter^2/2)^3∗0.5236)/1000. Weights were obtained twice weekly and mice were monitored daily for signs of toxicity. […] Tumor response was assessed by best response defined as greatest reduction in tumor volume following the last dose and is presented as percent change in tumor volume. […]

[2] = 12 MBq/kg/fraction x 4 fractions
[3] = 24 MBq/kg/fraction x 4 fractions
[4] = 36 MBq/kg/fraction x 4 fractions
[5] = NB-EBC1x, 24 MBq/kg/fraction x 4 fractions
[6] = NB-EBC1x, 36 MBq/kg/fraction x 4 fractions

O=C1NCCn2c(-c3ccc([211At])cc3)nc3cccc1c32 [[^211At]PTT, Astatine-211-parthanatine]
EFS by AOC method (COG-N-453x; [2]): 19.5598 days and 22.4877 days
Tumor response (% growth from study initiation at ~ 200 mm3) (COG-N-453x; [2]): 25% and -63.158%
EFS by AOC method (COG-N-453x; [3]): 43.7943 days and 33.4459 days
Tumor response (% growth from study initiation at ~ 200 mm3) (COG-N-453x; [3]): -100% and -90.323%
EFS by AOC method (COG-N-453x; [4]): 48.6067 days and 52.9347 days
Tumor response (% growth from study initiation at ~ 200 mm3) (COG-N-453x; [4]): -100%
median EFS ([1]; 12 MBq/kg dose level): 23 days
mouse tumors showing progressing disease after treatment ([1]; 12 MBq/kg dose level (COG-N-415x n = 1, COG-N-453x n = 1)): two
average decrease in tumor volume ([1]; 12 MBq/kg, n = 8, 4 PDX models): 27.15 ± 42.2%
median EFS ([1]; 24 MBq/kg dose level): 46 days
reduction in tumor volume after therapy re-challenge ([1]; 24 MBq/kg re-challenge, COG-N-426x-Felix and NB-EBC1x, n = 2): 100%
average decrease in tumor volume ([1]; 24 MBq/kg, n = 14, 7 PDX models): 92.6 ± 8.1%
average decrease in tumor volume ([1]; 36 MBq/kg (MTD), n = 22, 11 PDX models): 98.4 ± 3.3%
median event free survival (EFS) ([1]; 36 MBq/kg/fraction x4 (MTD)): 74 days
mice with no measurable tumor/disease at end of study ([1]; MTD, 6/20 mice, >95 days (b1), >90 days): 30%
complete tumor response, share of tumors ([1]; MTD, 18 of 22 tumors): 81.8%
EFS by AOC method (COG-N-519x; [2]): 22.7688 days and 33.292 days
Tumor response (% growth from study initiation at ~ 200 mm3) (COG-N-519x; [2]): -46.1538% and -36.8421%
EFS by AOC method (COG-N-519x; [3]): 28.2857 days and 42.6471 days
Tumor response (% growth from study initiation at ~ 200 mm3) (COG-N-519x; [3]): -83.871% and -100%
EFS by AOC method (COG-N-519x; [4]): 82.4 Days and 100. 5 Days and 82.4108 Days and 100.511 Days
Tumor response (% growth from study initiation at ~ 200 mm3) (COG-N-519x; [4]): -100%
EFS1 (initial treatment) (NB-EBC1x; NB-EBC1x, 24 MBq/kg/fraction x 4, re-challenged mouse n = 1): 45
EFS by AOC method (NB-EBC1x; [5]): 58.4 days
Tumor response (% growth from study initiation at ~ 200 mm3) (NB-EBC1x; [5]): -100%
EFS by AOC method (NB-EBC1x; [6]): 90.4 days and 97.6 days and 90.485 days and 97.6925 days
Tumor response (% growth from study initiation at ~ 200 mm3) (NB-EBC1x; [6]): -100%
EFS2 (re-challenge treatment) (NB-EBC1x; NB-EBC1x, re-challenge 24 MBq/kg/fraction x 4 at tumor progression, progressing disease): 47
Tumor Volume (NB-EBC1x; week 0): 0.17 cm3
Tumor Volume (NB-EBC1x; week 0.6): 0.28 cm3
Tumor Volume (NB-EBC1x; week 1.1): 0.24 cm3
Tumor Volume (NB-EBC1x; week 1.6): 0.04 cm3
Tumor Volume (NB-EBC1x; week 2): 0.01 cm3
Tumor Volume (NB-EBC1x; week 2.6): 0 cm3
Tumor Volume (NB-EBC1x; week 3.1): 0 cm3
Tumor Volume (NB-EBC1x; week 3.6): 0 cm3
Tumor Volume (NB-EBC1x; week 4.1): 0 cm3
Tumor Volume (NB-EBC1x; week 4.6): 0 cm3
Tumor Volume (NB-EBC1x; week 5): 0.05 cm3
Tumor Volume (NB-EBC1x; week 5.6): 0.32 cm3
Tumor Volume (NB-EBC1x; week 6): 0.41 cm3
Tumor Volume (NB-EBC1x; week 6.6): 1.05 cm3
Tumor Volume (NB-EBC1x; week 7): 0.73 cm3
Tumor Volume (NB-EBC1x; week 7.6): 0.34 cm3
Tumor Volume (NB-EBC1x; week 8): 0.16 cm3
Tumor Volume (NB-EBC1x; week 8.6): 0.03 cm3
Tumor Volume (NB-EBC1x; week 9): 0.07 cm3
Tumor Volume (NB-EBC1x; week 9.6): 0.07 cm3
Tumor Volume (NB-EBC1x; week 10): 0 cm3
Tumor Volume (NB-EBC1x; week 10.6): 0 cm3
Tumor Volume (NB-EBC1x; week 11): 0 cm3
Tumor Volume (NB-EBC1x; week 11.6): 0 cm3
Tumor Volume (NB-EBC1x; week 12): 0 cm3
Tumor Volume (NB-EBC1x; week 12.6): 0.02 cm3
Tumor Volume (NB-EBC1x; week 13): 0.06 cm3
Tumor Volume (NB-EBC1x; week 13.6): 0.34 cm3
Tumor Volume (NB-EBC1x; week 14): 0.98 cm3
EFS by AOC method (COG-N-471x): 83.4773 days and 64.9075 days
Tumor response (% growth from study initiation at ~ 200 mm3) (COG-N-471x): -100%
